What was measured:
Cannabinoid receptor 1 = Cannabinoid receptor 1 (Homo sapiens, UniProt P21554); format: cell membranes, Chem-1, Membrane; settings: chem-1; also: in other assays of this panel Not Active means under 50% inhibition at 10 µM
[1] = target: T1, Type-2 angiotensin II receptor (Homo sapiens, UniProt P50052); format: cell-based; settings: cho-k1; also: in other assays of this panel Not Active means under 50% inhibition at 10 µM
T1 sequence (P50052 whole entry): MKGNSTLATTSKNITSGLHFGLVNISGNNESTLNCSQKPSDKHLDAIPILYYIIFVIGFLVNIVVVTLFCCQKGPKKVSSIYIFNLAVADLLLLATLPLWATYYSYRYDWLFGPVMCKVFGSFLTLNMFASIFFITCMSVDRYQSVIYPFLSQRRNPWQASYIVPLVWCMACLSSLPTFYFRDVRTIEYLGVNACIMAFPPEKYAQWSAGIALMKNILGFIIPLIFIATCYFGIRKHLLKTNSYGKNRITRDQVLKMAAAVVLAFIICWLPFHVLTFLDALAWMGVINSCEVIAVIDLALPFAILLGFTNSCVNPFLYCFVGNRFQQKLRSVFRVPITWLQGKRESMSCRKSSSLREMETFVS

B2 bradykinin receptor = target: T2, B2 bradykinin receptor (Homo sapiens, UniProt P30411); format: cell membranes, Membrane; settings: chem-1; also: in other assays of this panel Not Active means under 50% inhibition at 10 µM
T2 sequence (P30411 whole entry): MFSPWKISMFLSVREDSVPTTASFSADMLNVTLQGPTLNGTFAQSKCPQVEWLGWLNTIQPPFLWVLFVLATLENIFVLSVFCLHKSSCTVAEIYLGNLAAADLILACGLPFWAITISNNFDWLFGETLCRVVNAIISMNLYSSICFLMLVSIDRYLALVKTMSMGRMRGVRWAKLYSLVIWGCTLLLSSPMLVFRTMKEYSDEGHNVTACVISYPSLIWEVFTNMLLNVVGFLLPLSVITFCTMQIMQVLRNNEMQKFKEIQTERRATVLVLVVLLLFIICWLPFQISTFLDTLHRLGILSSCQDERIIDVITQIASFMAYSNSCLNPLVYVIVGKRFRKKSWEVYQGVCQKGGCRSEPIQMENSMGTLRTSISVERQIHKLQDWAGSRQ

[2] = DRUGMATRIX: Sigma2 radioligand binding (ligand: [3H] Ifenprodil); format: cell membranes, Rattus norvegicus, Wistar, Brain, Membrane; settings: Not Active = under 50% inhibition at 10 µM
[3] = target: Kappa-type opioid receptor (Homo sapiens, UniProt P41145); test: DRUGMATRIX: Opiate kappa (OP2, KOP) radioligand binding (ligand: [3H] Diprenorphine); format: cell membranes, HEK293, Membrane; settings: hek293; Not Active = under 50% inhibition at 10 µM
[4] = target: Aldo-keto reductase family 1 member B1 (Rattus norvegicus, UniProt P07943); format: tissue-based, Lens of camera-type eye;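 also: inhibition of aldose reductase enzyme activity, measured with DL-glyceraldehyde as the substrate; in other assays of this panel Not Active means under 50% inhibition at 10 µM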
D(4) dopamine receptor = target: T3, D(4) dopamine receptor (Homo sapiens, UniProt P21917); test: DRUGMATRIX: Dopamine D4.2 radioligand binding (ligand: [3H] Spiperone); format: cell membranes, CHO-K1, Membrane; settings: cho-k1; Not Active = under 50% inhibition at 10 µM
T3 sequence (P21917 whole entry): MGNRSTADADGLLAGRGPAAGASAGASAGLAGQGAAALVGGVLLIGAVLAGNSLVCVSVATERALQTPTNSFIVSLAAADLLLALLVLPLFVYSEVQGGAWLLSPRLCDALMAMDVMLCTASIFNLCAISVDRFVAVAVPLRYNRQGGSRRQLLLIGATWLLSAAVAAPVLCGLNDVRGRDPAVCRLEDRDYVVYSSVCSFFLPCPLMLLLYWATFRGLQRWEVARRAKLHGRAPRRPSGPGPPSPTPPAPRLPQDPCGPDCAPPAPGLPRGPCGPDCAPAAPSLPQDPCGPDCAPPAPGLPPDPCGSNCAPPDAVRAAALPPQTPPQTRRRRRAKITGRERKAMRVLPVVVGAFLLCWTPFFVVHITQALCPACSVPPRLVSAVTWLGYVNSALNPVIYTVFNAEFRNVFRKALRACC

Cannabinoid receptor 1, sequence (P21554 whole entry): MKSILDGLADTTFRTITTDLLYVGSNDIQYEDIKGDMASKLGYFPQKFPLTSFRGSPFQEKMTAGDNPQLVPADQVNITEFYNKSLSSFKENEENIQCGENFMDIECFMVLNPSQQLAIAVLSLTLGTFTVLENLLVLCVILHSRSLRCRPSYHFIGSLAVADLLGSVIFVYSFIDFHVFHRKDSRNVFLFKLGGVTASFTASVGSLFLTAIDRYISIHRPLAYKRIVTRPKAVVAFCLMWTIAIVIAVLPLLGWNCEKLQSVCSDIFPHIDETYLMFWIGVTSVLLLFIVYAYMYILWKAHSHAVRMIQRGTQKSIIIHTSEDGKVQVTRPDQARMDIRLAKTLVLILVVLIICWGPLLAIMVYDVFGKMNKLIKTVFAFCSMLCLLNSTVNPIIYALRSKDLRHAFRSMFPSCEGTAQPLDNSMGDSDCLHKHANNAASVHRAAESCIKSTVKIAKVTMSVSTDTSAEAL
Kappa-type opioid receptor, sequence (P41145 whole entry): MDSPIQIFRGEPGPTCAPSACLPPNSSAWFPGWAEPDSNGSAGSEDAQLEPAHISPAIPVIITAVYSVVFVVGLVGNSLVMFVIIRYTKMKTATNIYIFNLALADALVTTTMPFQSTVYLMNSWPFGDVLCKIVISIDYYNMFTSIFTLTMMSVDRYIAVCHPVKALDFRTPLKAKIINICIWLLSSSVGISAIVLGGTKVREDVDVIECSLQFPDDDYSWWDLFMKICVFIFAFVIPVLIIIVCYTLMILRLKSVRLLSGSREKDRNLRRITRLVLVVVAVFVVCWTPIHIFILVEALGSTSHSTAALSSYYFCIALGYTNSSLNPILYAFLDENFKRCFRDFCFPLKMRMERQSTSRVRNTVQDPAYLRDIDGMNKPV

CC(C(=O)O)c1cccc(Oc2ccccc2)c1 (stereo unspecified) [FENOPROFEN]
Not Active: IC50 (Cannabinoid receptor 1) | IC50 [1] | IC50 (B2 bradykinin receptor) | IC50 [2] | Ki [2] | IC50 [3] | IC50 [4] | IC50 (D(4) dopamine receptor)

CC(C)(C)NC(=O)[C@H]1CC[C@H]2[C@@H]3CC[C@H]4NC(=O)C=C[C@]4(C)[C@H]3CC[C@]12C [FINASTERIDE]
Not Active: IC50 (Cannabinoid receptor 1) | IC50 [1] | IC50 (B2 bradykinin receptor) | IC50 [2] | Ki [2] | IC50 [3] | IC50 [4] | IC50 (D(4) dopamine receptor)

COc1ccc2c3c1O[C@H]1C[C@@H](O)C=C[C@@]31CCN(C)C2 [GALANTAMINE]
Not Active: IC50 (Cannabinoid receptor 1) | IC50 [1] | IC50 (B2 bradykinin receptor) | IC50 [2] | Ki [2] | IC50 [3] | IC50 [4] | IC50 (D(4) dopamine receptor)

Nc1ccn([C@@H]2O[C@H](CO)[C@@H](O)C2(F)F)c(=O)n1 [GEMCITABINE]
Not Active: IC50 (Cannabinoid receptor 1) | IC50 [1] | IC50 (B2 bradykinin receptor) | IC50 [2] | Ki [2] | IC50 [3] | IC50 [4] | IC50 (D(4) dopamine receptor)

CC(C)=CCC/C(C)=C/CO [GERANIOL]
Not Active: IC50 (Cannabinoid receptor 1) | IC50 [1] | IC50 (B2 bradykinin receptor) | IC50 [2] | Ki [2] | IC50 [3] | IC50 [4] | IC50 (D(4) dopamine receptor)

N=C(N)NC(=O)Cc1c(Cl)cccc1Cl [GUANFACINE]
Not Active: IC50 (Cannabinoid receptor 1) | IC50 [1] | IC50 (B2 bradykinin receptor) | IC50 [2] | Ki [2] | IC50 [3] | IC50 [4] | IC50 (D(4) dopamine receptor)

Oc1c(Cl)cc(Cl)c(Cl)c1Cc1c(O)c(Cl)cc(Cl)c1Cl [HEXACHLOROPHENE]
Not Active: IC50 (Cannabinoid receptor 1) | IC50 [1] | IC50 (B2 bradykinin receptor) | IC50 [2] | Ki [2] | IC50 [3] | IC50 [4] | IC50 (D(4) dopamine receptor)

NNc1nncc2ccccc12 [HYDRALAZINE]
Not Active: IC50 (Cannabinoid receptor 1) | IC50 [1] | IC50 (B2 bradykinin receptor) | IC50 [2] | Ki [2] | IC50 [3] | IC50 [4] | IC50 (D(4) dopamine receptor)

CC(=O)[C@@]1(O)CC[C@H]2[C@@H]3CCC4=CC(=O)CC[C@]4(C)[C@H]3CC[C@@]21C [HYDROXYPROGESTERONE]
Not Active: IC50 (Cannabinoid receptor 1) | IC50 [1] | IC50 (B2 bradykinin receptor) | IC50 [2] | Ki [2] | IC50 [3] | IC50 [4] | IC50 (D(4) dopamine receptor)

COC1=C(OC)C(=O)C(CCCCCCCCCCO)=C(C)C1=O [IDEBENONE]
Not Active: IC50 (Cannabinoid receptor 1) | IC50 [1] | IC50 (B2 bradykinin receptor) | IC50 [2] | Ki [2] | IC50 [3] | IC50 [4] | IC50 (D(4) dopamine receptor)

CC(C)NNC(=O)c1ccncc1 [IPRONIAZID]
Not Active: IC50 (Cannabinoid receptor 1) | IC50 [1] | IC50 (B2 bradykinin receptor) | IC50 [2] | Ki [2] | IC50 [3] | IC50 [4] | IC50 (D(4) dopamine receptor)

Cc1c(OCC(F)(F)F)ccnc1C[S+]([O-])c1nc2ccccc2[nH]1 (stereo unspecified) [LANSOPRAZOLE]
Not Active: IC50 (Cannabinoid receptor 1) | IC50 [1] | IC50 (B2 bradykinin receptor) | IC50 [2] | Ki [2] | IC50 [3] | IC50 [4] | IC50 (D(4) dopamine receptor)

O=c1cc(N2CCOCC2)oc2c(-c3ccccc3)cccc12 [LY-294002]
Not Active: IC50 (Cannabinoid receptor 1) | IC50 [1] | IC50 (B2 bradykinin receptor) | IC50 [2] | Ki [2] | IC50 [3] | IC50 [4] | IC50 (D(4) dopamine receptor)

COc1ccc2[nH]cc(CCNC(C)=O)c2c1 [MELATONIN]
Not Active: IC50 (Cannabinoid receptor 1) | IC50 [1] | IC50 (B2 bradykinin receptor) | IC50 [2] | Ki [2] | IC50 [3] | IC50 [4] | IC50 (D(4) dopamine receptor)

NC(=O)C[S+]([O-])C(c1ccccc1)c1ccccc1 (stereo unspecified) [MODAFINIL]
Not Active: IC50 (Cannabinoid receptor 1) | IC50 [1] | IC50 (B2 bradykinin receptor) | IC50 [2] | Ki [2] | IC50 [3] | IC50 [4] | IC50 (D(4) dopamine receptor)

CCN(CC)CCOCCC1=CCC2CC1C2(C)C (stereo unspecified) [MYRTECAINE]
Not Active: IC50 (Cannabinoid receptor 1) | IC50 [1] | IC50 (B2 bradykinin receptor) | IC50 [2] | Ki [2] | IC50 [3] | IC50 [4] | IC50 (D(4) dopamine receptor)

O=C(O)c1cccnc1Nc1cccc(C(F)(F)F)c1 [NIFLUMIC ACID]
Not Active: IC50 (Cannabinoid receptor 1) | IC50 [1] | IC50 (B2 bradykinin receptor) | IC50 [2] | Ki [2] | IC50 [3] | IC50 [4] | IC50 (D(4) dopamine receptor)

O=C(N/N=C/c1ccc([N+](=O)[O-])o1)c1cc([N+](=O)[O-])cc([N+](=O)[O-])c1O [NIFURSOL]
Not Active: IC50 (Cannabinoid receptor 1) | IC50 [1] | IC50 (B2 bradykinin receptor) | IC50 [2] | Ki [2] | IC50 [3] | IC50 [4] | IC50 (D(4) dopamine receptor)

COC(=O)Nc1nc2ccc(C(=O)c3cccs3)cc2[nH]1 [NOCODAZOLE]
Not Active: IC50 (Cannabinoid receptor 1) | IC50 [1] | IC50 (B2 bradykinin receptor) | IC50 [2] | Ki [2] | IC50 [3] | IC50 [4] | IC50 (D(4) dopamine receptor)

C#CC1(O)CC[C@H]2[C@@H]3CCC4=CC(=O)CC[C@@H]4[C@H]3CC[C@@]21CC (stereo partly specified) [NORGESTREL]
Not Active: IC50 (Cannabinoid receptor 1) | IC50 [1] | IC50 (B2 bradykinin receptor) | IC50 [2] | Ki [2] | IC50 [3] | IC50 [4] | IC50 (D(4) dopamine receptor)

COC(=O)Nc1nc2ccc([S+]([O-])c3ccccc3)cc2[nH]1 (stereo unspecified) [OXFENDAZOLE]
Not Active: IC50 (Cannabinoid receptor 1) | IC50 [1] | IC50 (B2 bradykinin receptor) | IC50 [2] | Ki [2] | IC50 [3] | IC50 [4] | IC50 (D(4) dopamine receptor)

CC(=O)O[C@H]1C(=O)[C@@]2(C)[C@H]([C@H](OC(=O)c3ccccc3)[C@]3(O)C[C@H](OC(=O)[C@H](O)[C@@H](NC(=O)c4ccccc4)c4ccccc4)C(C)=C1C3(C)C)[C@]1(OC(C)=O)CO[C@@H]1C[C@@H]2O [PACLITAXEL]
Not Active: IC50 (Cannabinoid receptor 1) | IC50 [1] | IC50 (B2 bradykinin receptor) | IC50 [2] | Ki [2] | IC50 [3] | IC50 [4] | IC50 (D(4) dopamine receptor)

CC(C)NCC(O)COc1cccc2[nH]ccc12 (stereo unspecified) [PINDOLOL]
Not Active: IC50 (Cannabinoid receptor 1) | IC50 [1] | IC50 (B2 bradykinin receptor) | IC50 [2] | Ki [2] | IC50 [3] | IC50 [4] | IC50 (D(4) dopamine receptor)

CCn1cc(C(=O)O)c(=O)c2cnc(N3CCCC3)nc21 [PIROMIDIC ACID]
Not Active: IC50 (Cannabinoid receptor 1) | IC50 [1] | IC50 (B2 bradykinin receptor) | IC50 [2] | Ki [2] | IC50 [3] | IC50 [4] | IC50 (D(4) dopamine receptor)

C[n+]1ccccc1/C=N/O.[Cl-] [PRALIDOXIME CHLORIDE]
Not Active: IC50 (Cannabinoid receptor 1) | IC50 [1] | IC50 (B2 bradykinin receptor) | IC50 [2] | Ki [2] | IC50 [3] | IC50 [4] | IC50 (D(4) dopamine receptor)

COc1cc2nc(N3CCN(C(=O)c4ccco4)CC3)nc(N)c2cc1OC [PRAZOSIN]
Not Active: IC50 (Cannabinoid receptor 1) | IC50 [1] | IC50 (B2 bradykinin receptor) | IC50 [2] | Ki [2] | IC50 [3] | IC50 [4] | IC50 (D(4) dopamine receptor)

C[C@]12C=CC(=O)C=C1CC[C@@H]1[C@@H]2[C@@H](O)C[C@@]2(C)[C@H]1CC[C@]2(O)C(=O)CO [PREDNISOLONE]
Not Active: IC50 (Cannabinoid receptor 1) | IC50 [1] | IC50 (B2 bradykinin receptor) | IC50 [2] | Ki [2] | IC50 [3] | IC50 [4] | IC50 (D(4) dopamine receptor)

From ChEMBL document CHEMBL1909046, “DrugMatrix in vitro pharmacology data”
